Results from patent publication US6951857B2, “6-Azauracil derivatives as IL-5 inhibitors” (priority 1997, dated 2005).

Tests used:
IL-5 production = assay: In vitro inhibition of IL-5 production in human blood; format: cell-based; conditions: test dose 1×10^−6 M; human whole blood stimulated with phytohemagglutinin, 48 hours, ELISA
Procedure: In Vitro Inhibition of IL-5 Production in Human Blood
Human Whole Blood Stimulation
Peripheral blood from healthy male donors was drawn into heparinized syringes (12.5 U heparin/ml). Blood samples were three-fold diluted in RMPI 1640 medium (Life Technologies, Belgium) supplemented with 2 mM L-glutamine, 100 U/ml penicillin and 100 μg/ml streptomycin, and 300 μl fractions were distributed in 24-well multidisc plates. Blood samples were preincubated (60 minutes at 37° C.) in a humidified 6% CO2-atmosphere with 100 μl of drug solvent (final concentration 0.02% dimethylsulfoxide in RPMI 1640) or with 100 μl of an appropriate dose of test compound before being stimulated by the addition of 100 μl of phytohemagglutinin HA17 (Murex, UK) at a final concentration of 2 μg/ml. After 48 hours, cell-free supernatant fluids were collected by centrifugation and stored at −70° C. until tested for the presence of IL-5.
IL-5 measurements were conducted as described in Van Wauwe et al. (1996, Inflamm Res, 45, 357-363) on page 358 using ELISA.
Table 8 lists the percentage inhibition of IL-5 production (column “% inhibition”) at a test dose of 1×10^−6 M, or in case the percentage inhibition is marked with an “*” 1×10^−5 M, for the compounds of the present invention including compounds of formula (I) which have been disclosed in U.S. Pat. No. 4,631,278 (Ref. A) or U.S. Pat. No. 4,767,760 (Ref: B) as summarized in table 7.

Compound	inhibition at 1 µM (IL-5 production) [%]	melting point [°C]
CON(C)C(=O)C(c1ccc(Cl)cc1)c1ccc(-n2ncc(=O)[nH]c2=O)cc1Cl (racemic) [1.6, (±)-2-chloro-α-(4-chlorophenyl)-N-methoxy-N-methyl-4-(4,5-dihydro-3,5-dioxo-1,2,4-triazin-2(3H)-yl)benzeneacetamide]	49	
CC(C#N)(c1ccc(Cl)c(C(F)(F)F)c1)c1c(Cl)cc(-n2ncc(=O)[nH]c2=O)cc1Cl (racemic) [1.7, (±)-2,6-dichloro-α-[4-chloro-3-(trifluoromethyl)phenyl]-4-(4,5-dihydro-3,5-dioxo-1,2,4-triazin-2(3H)-yl)-α-methylbenzeneacetonitrile]	92	
CC(C#N)(c1ccc(Cl)cc1)c1c(Cl)cc(-n2ncc(=O)[nH]c2=O)cc1Cl (racemic) [1.11, (±)-2,6-dichloro-α-(4-chlorophenyl)-4-(4,5-dihydro-3,5-dioxo-1,2,4-triazin-2(3H)-yl)-α-methylbenzeneacetonitrile]	12	
CNC(=O)C(C)(c1ccc(Cl)cc1)c1ccc(-n2ncc(=O)[nH]c2=O)cc1Cl (racemic) [1.14, (±)-2-chloro-α-(4-chlorophenyl)-4-(4,5-dihydro-3,5-dioxo-1,2,4-triazin-2(3H)-yl)-α,N-dimethylbenzeneacetamide]	9	
O=C(c1nc2ccccc2s1)C(c1ccc(Cl)cc1)c1ccc(-n2ncc(=O)[nH]c2=O)cc1Cl (racemic) [1.20, (±)-2-[4-[2-(2-benzothiazolyl)-1-(4-chlorophenyl)-2-oxoethyl]-3-chlorophenyl]-1,2,4-triazin-3,5(2H,4H)-dione]	80	
CC(C(N)=S)(c1ccc(Cl)cc1)c1ccc(-n2ncc(=O)[nH]c2=O)cc1Cl (racemic) [1.21, (±)-2-chloro-α-(4-chlorophenyl)-α-methyl-4-(4,5-dihydro-3,5-dioxo-1,2,4-triazin-2(3H)-yl)benzeneethanethioamide]	33	
CC(C#N)(c1ccc(Cl)c(C(F)(F)F)c1)c1cccc(-n2ncc(=O)[nH]c2=O)c1Cl (racemic) [1.36, (±)-4-chloro-α-[2-chloro-3-(4,5-dihydro-3,5-dioxo-1,2,4-triazin-2(3H)-yl)phenyl]-α-methyl-3-(trifluoromethyl)benzeneacetonitrile]	44	
CN(C)CCCC(C#N)(c1ccc(Cl)cc1)c1ccc(-n2ncc(=O)[nH]c2=O)cc1Cl (racemic) [1.58, (±)-2-chloro-α-(4-chlorophenyl)-4-(4,5-dihydro-3,5-dioxo-1,2,4-triazin-2(3H)-yl)-α-[3-(dimethylamino)propyl]-benzeneacetonitrile]	28	140
CC(C#N)(c1ccc(Cl)c(C(F)(F)F)c1)c1cc(-n2ncc(=O)[nH]c2=O)ccc1Cl (stereo not shown) [1.35]	33	
N#CC(c1ccc(Cl)c(C(F)(F)F)c1)c1cc(-n2ncc(=O)[nH]c2=O)ccc1Cl (stereo not shown) [1.37]	12	
N#CC(c1ccc(Cl)cc1)c1ccc(-n2ncc(=O)[nH]c2=O)cc1 (stereo not drawn) [1.41, α-(4-chlorophenyl)-4-(4,5-dihydro-3,5-dioxo-1,2,4-triazin-2(3H)-yl) benzeneacetonitrile]	13	206.3
